Measurements taken from patent publication US20100179225A1, “POI Prevention” (CYTOKINE PHARMASCIENCES, INC., priority 2008, published 2010).

Key:
ICAM-1 mRNA = experiment: Proinflammatory gene expression in ME, real-time RT-PCR: ICAM-1; format: in vivo, mice; conditions: 5 mg/kg i.v. preoperative
From the text: The small bowel of the animals was subjected to a standardized, surgical manipulation (IM) as described previously (Kalff J C, Schraut W H, Simmons R L et al. Surgical manipulation of the gut elicits an intestinal muscularis inflammatory response resulting in postsurgical ileus. Ann Surg 1998; 228:652-663; Wehner S, Schwarz N T, Hundsdoerfer R et al. Induction of IL-6 within the rodent intestinal muscularis after intestinal surgical stress. Surgery 2005; 137:436-446). In brief, after anesthesia a midline abdominal incision was made into the peritoneal cavity. […]
(§1) Proinflammatory gene expression was analyzed in placebo and CNI-1493 (5 mg/kg) treated animals at 1, 3, 6 and 24 hours after operation; n=5-7 each group. […] Total RNA was analyzed in ME specimen that was prepared as described before (Wehner S, Behrendt F F, Lyutenski B N et al. Inhibition of macrophage function prevents intestinal inflammation and postoperative ileus in rodents. Gut 2007; 56:176-185). […] Expression of mRNA was quantified in triplicate by a RT-PCR with gene expression assays for […] (MCP-1; #Mm00441242_m1), CCL3 (MIP-1α #Mm00441258_m1), IL-6 (Assay ID #Mm00446190_ml), TNF-α (#Mm00443258_m1) and ICAM-1 (#Mm00516023_m1). […] Data quantification was performed by the ΔΔCT method. […]

MCP-1 mRNA = experiment: Proinflammatory gene expression in ME, real-time RT-PCR: MCP-1; format: in vivo, mice; conditions: 5 mg/kg i.v. preoperative
From the text: (§2) The small bowel of the animals was subjected to a standardized, surgical manipulation (IM) as described previously (Kalff J C, Schraut W H, Simmons R L et al. Surgical manipulation of the gut elicits an intestinal muscularis inflammatory response resulting in postsurgical ileus. Ann Surg 1998; 228:652-663; Wehner S, Schwarz N T, Hundsdoerfer R et al. Induction of IL-6 within the rodent intestinal muscularis after intestinal surgical stress. Surgery 2005; 137:436-446). In brief, after anesthesia a midline abdominal incision was made into the peritoneal cavity. The entire small bowel was eventuated and manipulated with standardized moderate intensity using two moist cotton applicators as described previously. After IM, the laparotomy was closed by one layer of continuous suture, except when probe sampling was conducted within 20 minutes after surgery. These animals were held in anesthesia and the abdomen was closed by a clamp and protected with sterile gauze. All other animals recovered rapidly from the bowel manipulation procedure. Control animals exclusively underwent laparotomy without eventration and IM (sham operation).
Animals within examples referring to FIGS. 2-9 were treated 90 minutes before operation with 0 mg/kg (placebo group), or 5 mg/kg bodyweight CNI-1493. […]
as §1

p38-MAPK = p38-MAPK phosphorylation in ME lysates after intestinal manipulation (immunoblot); format: in vivo, C57BL/6J mice; conditions: 5 mg/kg i.v. preoperative; 30 minutes after operation; compared to placebo group
From the text: as §2, with “These animals were held in anesthesia and the abdomen was closed by a clamp and protected with sterile gauze. All other animals recovered rapidly from the bowel manipulation procedure. Control animals exclusively underwent laparotomy without eventration and IM (sham operation).” left out
p38-MAPK and JNK/SAPK phosphorylation were analyzed in C57BL/6J mice 15, 30 and 60 minutes after IM and in unoperated controls. […] Finally, the sonicated samples were centrifuged at 13.000×g for 10 minutes, and total protein concentration was determined with Pierce BCA protein assay (Perbio, Bonn, Germany). […]
After PAGE, proteins were blotted on Immobilon-P […] PVDF membranes. […] Chemiluminscence signals were detected with a LAS 4000 system (Fujifilm, Duesseldorf, Germany).

swine = experiment: Intestinal anastomotic healing in swine (bursting pressure, hydroxyproline content); format: in vivo; conditions: 1 mg/kg p.o. 14 hours and 3 hours, or once 2 hours (iv group), before operation, postoperative day 6
Protocol: Swine were fed with 1 mg/kg CPSI-2364 or placebo (2.5% mannitol) 14 hours and 3 hours before operation. In the iv group, 1 mg/kg CPSI 2364 was fed once 2 hours before operation. After premedication animals were intubated and a central venous catheter was applied. A laparotomy was performed under sterile conditions.

Row | anastomotic bursting pressure levels vs placebo (swine) | anastomotic hydroxyproline content vs placebo (swine) | Compound | ICAM-1 mRNA expression (fold upregulation) (ICAM-1 mRNA; 1 hour after IM) | ICAM-1 mRNA expression (fold upregulation) (ICAM-1 mRNA; 3 hours after IM) | MCP-1 mRNA expression (fold upregulation) (MCP-1 mRNA; 3 hours after IM) | MCP-1 mRNA expression (fold upregulation) (MCP-1 mRNA; 6 hours after IM) | MCP-1 mRNA expression (fold upregulation) (MCP-1 mRNA; 24 hours after IM) | upregulation of p38-MAPK phosphorylation by IM (p38-MAPK)
1 | – | – | C/C(=N\N=C(N)N)c1cc(NC(=O)CCCCCCCCC(=O)Nc2cc(/C(C)=N/N=C(N)N)cc(/C(C)=N/N=C(N)N)c2)cc(/C(C)=N/N=C(N)N)c1.Cl.Cl.Cl.Cl [CNI-1493] | 3.3±0.70 fold | 7.2±2.8 fold | 142±45 fold | 317±143 fold | 92±44 fold | reduced near to control levels
2 | No differences were observed | No differences were observed | C/C(=N\N=C(N)N)c1cc(NC(=O)CCCCCCCCC(=O)Nc2cc(/C(C)=N/N=C(N)N)cc(/C(C)=N/N=C(N)N)c2)cc(/C(C)=N/N=C(N)N)c1.CS(=O)(=O)O.CS(=O)(=O)O.CS(=O)(=O)O.CS(=O)(=O)O [CPSI-2364] | – | – | – | – | – | –
